Key:
PC12-HS cells [1] = assay: Evaluation method A: neurocyte growth acceleration activity (Alamar blue); assay type: cell-based, rat; details: for Cell proliferation rate (%): negative control = 100%; for Action on PC12-HS growth acceleration (50 ng/ml): 3 days culture, class of cell proliferation rate vs negative control = 100%; for neurocyte growth acceleration activity (in words): 40, 200 and 1,000 nM, comment on Table 2; for cytotoxicity to PC12-HS cells: concentration range tested
Excerpt: As a model of the nerve cell, the NGF (nerve growth factor) highly sensitive strain of PC12 cell derived from the rat adrenal pheochromocytoma (hereinafter referred to as “PC12-HS cell”; JCRB cell bank, National Research and Development Institute of Health and Nutrition), which has been widely used as a suitable model for research on human neurodegenerative disease, was used. As the test compound, […] of trimethine cyanine dye compounds; NK-5 (Chemical formula 2), NK-36 (Chemical formula 3), NK-44 (Chemical formula 5) and dye compounds represented by Chemical formulae 12 to 18, and NK-6 (Chemical formula 7), which is a monomethine cyanine dye, were selected. In addition, two kinds of ethylene cross-linked dyes (Chemical formulae 19 and 20), 15 kinds of monomethine cyanine dyes (Chemical formulae 21 to 35), and seven kinds of trimethine cyanine dyes (Chemical formulae 36 to 42), which were expected to have a good neurocyte growth acceleration activity and/or neurite-outgrowth promoting activity in the screening disclosed in Patent literature 6, were also re-evaluated for comparison. The Chemical formulae 12 to 42 are shown below.
The cyanine dye compounds subjected to the test (purity 97% by mass or more, synthesized by Hayashibara Co., Ltd., Okayama, Japan) were individually dissolved in DMSO (product number “D8418”, commercialized by SIGMA Corporation) at a concentration of 5 mg/ml, and the solutions were then filtered through DMSO-resistant membrane (“Millex-LGS LLG025SS”, commercialized by Millipore Corporation) and stored at 25° C. in a dark condition. At the time of use, they were further diluted with Dulbecco's Medium (hereinafter, abbreviated as “D-MEM medium”, commercialized by Nissui Pharmaceutical Co., Ltd.) supplemented by 10% by volume of fetal bovine serum (FBS), and subjected to the test.
PC12-HS cells were subjected to tests after frozen stock cultured cells were thawed and cultured with a D-MEM medium supplemented with 10% by volume of FBS (Hereinafter, when the term “culture” is simply used, it means that the cells are statically cultured in an incubator controlled at 37° C. under 5% by volume of CO2 conditions). Cells used in the test were collected using 0.25% by weight of trypsin solution, then diluted with a D-MEM medium supplemented with 10% by volume of FBS (hereinafter referred to as “culture medium”), seeded into collagen-coated 96-well plates (commercialized by Falcon, Tokyo, Japan, “Microtest Plate, Cell Culture, Flat Bottom”) to obtain 5×10^3 cells/100 μl/well, and cultured for 24 hours (hereinafter referred to as “pre-culture”). Then, the above test samples were diluted with a culture medium, and 100 μl of diluted solution of the test compounds were added to each well so that the final concentration of the test compounds in the wells became 50 ng/ml, and the cells were cultured for another three days. On day 3, the cultures supernatant was removed from each well, 200 μl of culture medium containing 10% by volume of Alamar blue reagents (commercialized by Trek Diagnostic Systems Inc., Ohio, USA) were added to each well, and the cells were cultured for 6 hours. After culturing for 6 hours, the cells were measured for fluorescent intensity at a wavelength of 544-590 nm by “FlexStation 3”, a product name of a fluorescent plate reader (commercialized by Japan Molecular Devices Corporation, Tokyo, Japan). […] Measurements were performed for each test compound in triplicate, and the mean values were shown.
The method was based on Experiment 1-1, except the concentrations of the test compounds were set to three doses of 40 nM, 200 nM and 1,000 nM for evaluation method A (neurocyte growth accelerating effect), and two doses of 200 nM and 1,000 nM for evaluation method B (neurite outgrowth promoting effect). […]

PC12-HS cells [2] = assay: Intracellular ROS production after hydrogen peroxide stimulation (CM-H2DCFDA); assay type: cell-based, rat; details: for intercellular ROS production (%): 50 μM hydrogen peroxide only = 100%; for inhibitory effect on intercellular ROS production (in words): 125 to 1,000 nM
Excerpt: From the above-mentioned Experiment 1-1 and Experiment 1-2, it was shown that NK-5 (Chemical formula 2), NK-5 analogs (Chemical formula 3 and Chemical formula 5) and NK-6 (Chemical formula 7) have strong neurocyte growth acceleration activity and neurite-outgrowth promoting activity, and therefore, it was verified by the following experiment whether these compounds also act effectively on oxidative damage to neurocyte. That is, PC12-HS cells were oxidatively stimulated with hydrogen peroxide, and the intracellular ROS generated at that time was quantified using a fluorescent reagent, and the inhibitory effect of the dye compounds on intercellular ROS production, when an external oxidative stress was applied, was evaluated.
Similar to Experiment 1-1 and Experiment 1-2, precultured PC12-HS cells were cultured for 24 hours with test compounds diluted in culture medium at final concentrations of 125, 250, 500 and 1000 nM. Thereafter, the culture supernatant was removed, the cells were washed with Hank's buffer (60 μM CaCl2), 400 μM MgSO4, 500 μM MgCl2), and then 100 μl of ROS detection reagent CM-H2DCFDA (commercialized by FUJIFILM Wako Pure Chemical Corporation, Tokyo, Japan) adjusted to 5 μM with the same buffer, was added to each well. The PC12-HS cells were cultured at 37° C. for 30 minutes to allow the cells to take up CM-H2DCFDA, and then, the solution containing CM-H2DCFDA was removed. Then, the cells were washed with Hank's buffer, and then added 50 μM of hydrogen peroxide (commercialized by FUJIFILM Wako Pure Chemical Corporation, Tokyo, Japan) diluted with Hank's buffer in a volume 100 μl/well and stimulated at 37° C. for 2 hours. The solution containing hydrogen peroxide was removed, then an 200 μl of Hank's buffer was added to each well, and the cells were measured for fluorescent intensity at a wavelength of 492-527 nm, which is an index of intracellular ROS production, by a fluorescence microplate reader. In addition, after measuring the fluorescence intensity, the cells were fixed by adding 20 μl of glutaraldehyde to each well, and the amount of methylene blue dye uptake was measured as an absorbance at 650 nm, according to a conventional method, the result was used as an index of the number of living cells. The amount of ROS production per cell was indicated by the value that fluorescence intensity (492-527 nm) was divided by the absorbance at 650 nm in each well. The amount of ROS production per cell calculated from cells to which only hydrogen peroxide was added without containing the test compound as a negative control, was set as 100%, and the relative value when the test compound was added was determined, and is shown in Table 3, as the ROS production rate (%) per cell of each well. Measurements were performed for each concentration of each test compound in triplicate, and the mean values were described.

SMILES | Cell proliferation rate (%) (PC12-HS cells [1]; 1.000 nM) | Cell proliferation rate (%) (PC12-HS cells [1]; 40 nM) | Action on PC12-HS growth acceleration (50 ng/ml) (PC12-HS cells [1]) | Cell proliferation rate (%) (PC12-HS cells [1]; 200 nM) | neurocyte growth acceleration activity (in words) (PC12-HS cells [1]) | cytotoxicity to PC12-HS cells (PC12-HS cells [1]) | intercellular ROS production (%) (PC12-HS cells [2]; 125 nM) | intercellular ROS production (%) (PC12-HS cells [2]; 250 nM) | intercellular ROS production (%) (PC12-HS cells [2]; 500 nM) | intercellular ROS production (%) (PC12-HS cells [2]; 1,000 nM) | inhibitory effect on intercellular ROS production (in words) (PC12-HS cells [2]) | cell proliferation relative to the negative control (PC12-HS cells [1]; 40 nM)
CCN1C=CC(=Cc2cc[n+](CC)c3ccccc23)c2ccccc21.[I-] [NK-6] | 141.9 | 105.0 | ◯ (the relative value of 130% to 169% was judged to be equivalent to NK-4 (“circle”)) | 117.0 | slightly weaker than that of NK-4 | do not show cytotoxicity | 108.6 | 81.2 | 69.8 | 66.2 | suppressed the intercellular ROS production induced by hydrogen peroxide stimulation, in a concentration-dependent manner | 
CCN1C=CC(=CC=Cc2cc[n+](CC)c3ccccc23)c2ccccc21.[Br-] [NK-36] | 137.2 | 123.0 | ◯ (the relative value of 130% to 169% was judged to be equivalent to NK-4 (“circle”)) | 115.5 | slightly weaker than that of NK-4 | do not show cytotoxicity | 88 | 43.5 | 51 | 8.3 | suppressed the intercellular ROS production induced by hydrogen peroxide stimulation, in a concentration-dependent manner | 
CCCCN1C=CC(=CC=Cc2cc[n+](CCCC)c3ccccc23)c2ccccc21.[I-] [NK-44] | 78.5 | 193.4 | ⊚ (170% or higher was judged to be significantly stronger than NK-4 (“double circle”)) | 154.3 | strongest activity | do not show cytotoxicity | 75.4 | 65.11 | 34.1 | 27.1 | suppressed the intercellular ROS production induced by hydrogen peroxide stimulation, in a concentration-dependent manner | about 1.9 times
